ChEMBL document CHEMBL5113380, “Functionalized quinoxalinones as privileged structures with broad-ranging pharmacological activities” (Eur J Med Chem, 2022)
In brackets after ≈: the same amount, converted by molar mass.

What was measured:
[1] = target: Human immunodeficiency virus type 1 reverse transcriptase (Human immunodeficiency virus 1) (UniProt Q72547); assay: Inhibition of HIV1 reverse transcriptase at 10 uM relative to control
[2] = target: Human immunodeficiency virus type 1 reverse transcriptase (Human immunodeficiency virus 1) (UniProt Q72547); assay: Inhibition of HIV1 reverse transcriptase at 100 uM relative to control
[3] = target: Glutamate [NMDA] receptor; assay: Displacement of [3H]glycine from NMDA receptor (unknown origin); format: protein-complex assay, Homo sapiens
[4] = target: T1, Glutamate receptor ionotropic AMPA (Homo sapiens, UniProt P42261+P42262+P42263+P48058); assay: Displacement of [3H]AMPA from AMPA receptor (unknown origin); format: protein-complex assay
Homo sapiens = species: Homo sapiens; assay: Inhibition of human TRK relative to control; set-up: concentration or dose not given beside the values; settings: concentration not given here
[5] = target: Prostaglandin G/H synthase 1 (Homo sapiens, UniProt P23219)
[6] = target: Human immunodeficiency virus type 1 reverse transcriptase (Human immunodeficiency virus 1, UniProt Q72547); assay: Inhibition of HIV1 reverse transcriptase
[7] = Displacement of [3H]glycine from AMPA receptor (unknown origin); format: protein-complex assay, Homo sapiens
[8] = target: T1, Glutamate receptor ionotropic AMPA; assay: Displacement of [3H]kainate from AMPA receptor (unknown origin); format: protein-complex assay
[9] = Inhibition of palmitate-induced lipid accumulation in human HepG2 cells relative to control; format: functional
[10] = target: Glutamate receptor ionotropic, kainate 1 (Homo sapiens, UniProt P39086); assay: Binding affinity to GluK1 receptor (unknown origin)
[11] = target: Glutamate [NMDA] receptor; assay: Binding affinity to NMDA receptor (unknown origin); format: protein-complex assay, Homo sapiens
Glutamate receptor 2 = Glutamate receptor 2 (Homo sapiens, UniProt P42262); assay: Binding affinity to GluA2 receptor (unknown origin)
[12] = Binding affinity to KA receptor (unknown origin); set-up: species or system Homo sapiens
[13] = target: T1, Glutamate receptor ionotropic AMPA; assay: Binding affinity to AMPA receptor (unknown origin); format: protein-complex assay
[14] = target: Glutamate receptor ionotropic, kainate 2 (Homo sapiens, UniProt Q13002); assay: Binding affinity to GluK2 receptor (unknown origin)
Alpha amylase = target: T2, Alpha amylase (Homo sapiens, UniProt P0DUB6); assay: Inhibition of alpha-amylase (unknown origin)
T2 sequence (P0DUB6 whole entry): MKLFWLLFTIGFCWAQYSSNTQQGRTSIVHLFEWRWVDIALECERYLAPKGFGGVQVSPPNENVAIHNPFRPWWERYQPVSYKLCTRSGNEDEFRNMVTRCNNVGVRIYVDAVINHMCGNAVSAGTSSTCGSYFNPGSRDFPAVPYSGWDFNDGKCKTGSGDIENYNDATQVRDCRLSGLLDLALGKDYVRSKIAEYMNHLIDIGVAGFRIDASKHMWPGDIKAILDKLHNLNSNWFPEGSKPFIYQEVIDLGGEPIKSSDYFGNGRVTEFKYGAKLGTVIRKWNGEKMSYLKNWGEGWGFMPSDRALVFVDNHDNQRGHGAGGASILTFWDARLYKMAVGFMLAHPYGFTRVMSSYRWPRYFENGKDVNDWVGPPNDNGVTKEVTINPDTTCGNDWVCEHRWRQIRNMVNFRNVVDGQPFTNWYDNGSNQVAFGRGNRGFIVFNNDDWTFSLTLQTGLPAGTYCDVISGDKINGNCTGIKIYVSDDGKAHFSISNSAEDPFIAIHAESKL

[15] = Antioxidant activity assessed as DPPH radical scavenging activity at 100 uM; format: functional
[16] = Inhibition of ALR1 (unknown origin) relative to control; set-up: concentration or dose not given beside the values; settings: Homo sapiens; concentration not given here
[17] = Antioxidant activity assessed as DPPH radical scavenging activity at 10 uM; format: functional
[18] = Inhibition of ALR2 (unknown origin); set-up: species or system Homo sapiens
[19] = Antioxidant activity assessed as DPPH radical scavenging activity; format: functional; settings: read-out: IC50
[20] = Antioxidant activity assessed as DPPH radical scavenging activity at 50 uM; format: functional
Staphylococcus aureus = assay: Antibacterial activity against Staphylococcus aureus; format: functional
Candida parapsilosis = assay: Antifungal activity against Candida parapsilosis; format: functional; settings: Lodderomyces parapsilosis
Candida [21] = assay: Antifungal activity against Candida species isolate 1; format: functional
Candida [22] = assay: Antifungal activity against Candida species isolate 3; format: functional
Pichia kudriavzevii = assay: Antifungal activity against Candida krusei; format: functional
Candida tropicalis = assay: Antifungal activity against Candida tropicalis; format: functional
Candida albicans = assay: Antifungal activity against Candida albicans; format: functional
Nakaseomyces glabratus = assay: Antifungal activity against Candida glabrata; format: functional

Sequence of Prostaglandin G/H synthase 1 (P23219 whole entry): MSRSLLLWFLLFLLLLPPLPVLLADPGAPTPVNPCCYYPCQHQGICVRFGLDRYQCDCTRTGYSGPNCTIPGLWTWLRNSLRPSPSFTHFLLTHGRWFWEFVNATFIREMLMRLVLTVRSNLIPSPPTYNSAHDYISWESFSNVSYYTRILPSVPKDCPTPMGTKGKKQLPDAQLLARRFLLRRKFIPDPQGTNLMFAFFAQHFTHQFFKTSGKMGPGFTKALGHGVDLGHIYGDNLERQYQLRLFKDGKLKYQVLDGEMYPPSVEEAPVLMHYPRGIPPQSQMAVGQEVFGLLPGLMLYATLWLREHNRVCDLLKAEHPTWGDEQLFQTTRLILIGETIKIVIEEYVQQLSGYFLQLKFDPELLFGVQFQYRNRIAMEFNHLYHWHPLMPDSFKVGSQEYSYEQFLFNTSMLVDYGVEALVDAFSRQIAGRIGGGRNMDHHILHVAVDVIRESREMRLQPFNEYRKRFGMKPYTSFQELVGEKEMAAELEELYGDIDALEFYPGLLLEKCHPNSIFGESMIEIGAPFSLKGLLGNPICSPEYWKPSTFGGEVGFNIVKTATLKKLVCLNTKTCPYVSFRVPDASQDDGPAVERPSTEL
Sequence of Glutamate receptor ionotropic, kainate 2 (Q13002 whole entry): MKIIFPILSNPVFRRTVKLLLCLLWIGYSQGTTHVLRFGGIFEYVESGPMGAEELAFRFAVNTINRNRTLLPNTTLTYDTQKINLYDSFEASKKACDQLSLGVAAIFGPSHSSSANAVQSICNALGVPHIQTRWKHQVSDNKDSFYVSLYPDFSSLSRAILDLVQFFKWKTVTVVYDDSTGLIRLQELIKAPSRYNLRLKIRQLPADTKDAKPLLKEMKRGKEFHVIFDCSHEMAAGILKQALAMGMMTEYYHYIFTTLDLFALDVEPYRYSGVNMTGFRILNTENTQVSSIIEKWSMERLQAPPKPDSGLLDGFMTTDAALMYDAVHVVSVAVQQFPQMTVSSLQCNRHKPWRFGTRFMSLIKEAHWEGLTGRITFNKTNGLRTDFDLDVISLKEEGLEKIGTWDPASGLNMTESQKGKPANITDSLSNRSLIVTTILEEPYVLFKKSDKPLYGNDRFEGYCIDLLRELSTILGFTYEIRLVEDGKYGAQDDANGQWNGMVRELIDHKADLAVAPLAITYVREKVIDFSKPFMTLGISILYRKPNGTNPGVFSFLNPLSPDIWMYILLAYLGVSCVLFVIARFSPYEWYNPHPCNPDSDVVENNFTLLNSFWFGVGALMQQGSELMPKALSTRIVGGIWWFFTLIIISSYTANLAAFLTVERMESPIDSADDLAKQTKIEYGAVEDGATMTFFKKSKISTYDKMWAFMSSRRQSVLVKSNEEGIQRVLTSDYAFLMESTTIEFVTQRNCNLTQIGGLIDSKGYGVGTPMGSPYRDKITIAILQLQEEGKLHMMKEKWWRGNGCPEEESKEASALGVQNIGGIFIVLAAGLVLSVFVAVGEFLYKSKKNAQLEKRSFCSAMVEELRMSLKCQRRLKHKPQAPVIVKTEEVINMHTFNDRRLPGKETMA
Sequence of Glutamate receptor ionotropic, kainate 1 (P39086 whole entry): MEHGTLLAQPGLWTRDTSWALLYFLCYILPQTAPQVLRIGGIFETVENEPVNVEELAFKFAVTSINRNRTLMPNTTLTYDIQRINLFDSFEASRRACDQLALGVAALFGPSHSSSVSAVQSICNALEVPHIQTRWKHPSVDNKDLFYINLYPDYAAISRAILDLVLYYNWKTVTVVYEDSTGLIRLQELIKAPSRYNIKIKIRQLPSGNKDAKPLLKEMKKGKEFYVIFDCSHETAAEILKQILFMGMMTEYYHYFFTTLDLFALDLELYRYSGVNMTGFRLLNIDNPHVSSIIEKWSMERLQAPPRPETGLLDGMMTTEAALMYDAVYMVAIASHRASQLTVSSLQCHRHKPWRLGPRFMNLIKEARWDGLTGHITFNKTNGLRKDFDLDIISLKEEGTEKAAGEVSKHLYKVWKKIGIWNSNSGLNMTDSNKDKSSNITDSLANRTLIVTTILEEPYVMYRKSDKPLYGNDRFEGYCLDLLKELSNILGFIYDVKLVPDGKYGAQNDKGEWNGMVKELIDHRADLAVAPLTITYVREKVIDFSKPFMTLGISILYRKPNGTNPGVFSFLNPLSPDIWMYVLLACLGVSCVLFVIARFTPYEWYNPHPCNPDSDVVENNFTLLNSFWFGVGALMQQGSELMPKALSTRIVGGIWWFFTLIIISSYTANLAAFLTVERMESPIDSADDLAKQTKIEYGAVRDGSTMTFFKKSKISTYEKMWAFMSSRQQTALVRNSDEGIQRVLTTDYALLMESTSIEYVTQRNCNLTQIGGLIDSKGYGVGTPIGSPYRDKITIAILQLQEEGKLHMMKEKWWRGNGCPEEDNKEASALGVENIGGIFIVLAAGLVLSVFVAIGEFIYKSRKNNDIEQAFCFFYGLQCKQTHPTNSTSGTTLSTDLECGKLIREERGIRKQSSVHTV
Sequence of Glutamate receptor 2 (P42262 whole entry): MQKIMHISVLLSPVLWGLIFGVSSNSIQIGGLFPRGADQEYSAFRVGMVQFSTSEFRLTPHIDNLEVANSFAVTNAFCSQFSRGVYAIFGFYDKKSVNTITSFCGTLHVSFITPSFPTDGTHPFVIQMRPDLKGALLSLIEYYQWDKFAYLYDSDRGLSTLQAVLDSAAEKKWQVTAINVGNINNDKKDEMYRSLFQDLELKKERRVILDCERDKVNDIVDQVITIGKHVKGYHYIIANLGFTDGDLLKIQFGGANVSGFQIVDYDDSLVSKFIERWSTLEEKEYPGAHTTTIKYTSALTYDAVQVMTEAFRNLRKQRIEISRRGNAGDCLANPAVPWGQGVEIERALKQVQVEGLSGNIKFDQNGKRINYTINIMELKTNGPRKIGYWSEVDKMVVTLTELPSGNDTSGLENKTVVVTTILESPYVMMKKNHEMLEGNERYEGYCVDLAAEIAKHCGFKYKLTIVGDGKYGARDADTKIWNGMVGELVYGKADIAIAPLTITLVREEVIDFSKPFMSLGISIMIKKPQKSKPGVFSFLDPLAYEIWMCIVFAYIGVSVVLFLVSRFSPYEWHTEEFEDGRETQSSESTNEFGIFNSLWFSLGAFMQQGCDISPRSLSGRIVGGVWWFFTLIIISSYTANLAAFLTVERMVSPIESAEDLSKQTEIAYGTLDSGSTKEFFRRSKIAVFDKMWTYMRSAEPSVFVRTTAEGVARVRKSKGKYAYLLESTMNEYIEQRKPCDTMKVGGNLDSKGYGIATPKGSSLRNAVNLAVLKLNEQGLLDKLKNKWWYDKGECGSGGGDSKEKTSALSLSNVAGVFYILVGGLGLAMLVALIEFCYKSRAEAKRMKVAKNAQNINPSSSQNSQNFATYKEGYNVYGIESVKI

## CC(=O)N1CC(=O)Nc2ccccc21
[1]
  inhibition: 7%
[2]
  inhibition: 56%

## Cc1cc2[nH]c(=O)c(=O)n(CP(=O)(O)O)c2cc1C
[3]
  Ki: 5280 nM
[4]
  Ki: 1210 nM

## Cc1nn(-c2ccccc2)c(N2CCN(C)CC2)c1/C=N/Nc1nc2ccccc2nc1O
Homo sapiens
  inhibition: 83%
[5]
  IC50: > 50000 nM

## COC(=O)c1sc(Cl)cc1S(=O)(=O)N1c2cc(Cl)ccc2NC(=O)C1C (stereo unspecified)
[6]
  IC50: 70 nM

## CCC(C)CN1CCc2c(Br)cc3nc(O)c(O)nc3c2C1 (stereo unspecified)
[4]
  IC50: > 100000 nM
[7]
  IC50: > 100000 nM
[8]
  IC50: 2900 nM

## Cc1cccc2c1NC[C@H](C)N2
[9]
  inhibition (INH): 30%

## COC(=O)c1sccc1S(=O)(=O)N1c2cc(F)ccc2NC(=O)C1C (stereo unspecified)
[6]
  IC50: 200 nM

## Cc1ccc(C(=O)O)cc1-c1ccc2[nH]c(=O)c(=O)[nH]c2c1
[10]
  Ki: 1300 nM
[11]
  Ki: > 100000 nM
Glutamate receptor 2
  Ki: > 100000 nM
[12]
  IC50: > 100000 nM
[13]
  IC50: 30000 nM
[14]
  Ki: > 100000 nM

## COc1cccc(/C=N/Nc2nc3ccccc3[nH]c2=O)c1
Alpha amylase
  IC50: 492680 nM

## CC(C)Cc1nc2ccccc2[nH]c1=O
[1]
  inhibition: 15%
[2]
  inhibition: 73%
[6]
  IC50: 23000 nM

## CN1CCc2c(c([N+](=O)[O-])cc3[nH]c(=O)c(=O)[nH]c23)C1
[4]
  IC50: 290 nM
[7]
  IC50: 4900 nM
[8]
  IC50: 380 nM

## Cc1ccc2c(c1)N[C@@H](C)C(=O)N2
[9]
  inhibition (INH): 50%

## Cc1ccc2ncc(C)nc2c1
[9]
  inhibition (INH): 20%

## O=c1[nH]c2cc(-n3ccnc3)c([N+](=O)[O-])cc2[nH]c1=O [YM-90K]
[4]
  Ki: 84 nM
[7]
  Ki: 37000 nM
[8]
  Ki: 2200 nM

## O=c1c(/C=C/c2ccc(O)c(O)c2)nc2ccccc2n1-c1cnn(O)c1
[15]
  Activity: 95.6%
[16]
  inhibition: 30.5%
[17]
  Activity: 40.8%
[18]
  IC50: 148 nM
[19]
  IC50: 20900 nM
[20]
  Activity: 72.5%

## Cc1nn(-c2ccccc2)c(N2CCNCC2)c1/C=N/Nc1nc2ccccc2nc1O
Homo sapiens
  inhibition: 20%
[5]
  IC50: > 50000 nM

## O=c1[nH]c2cc(C(F)(F)F)ccc2nc1CBr
Staphylococcus aureus
  MIC: 62.5 µg/mL (≈ 204 µM)
Candida parapsilosis
  MIC: > 125 µg/mL
Candida [21]
  MIC: 62.5 µg/mL (≈ 204 µM)
Candida [22]
  MIC: < 3.5 µg/mL
Pichia kudriavzevii
  MIC: 125 µg/mL (≈ 407 µM)
Candida tropicalis
  MIC: 125 µg/mL (≈ 407 µM)
Candida albicans
  MIC: > 125 µg/mL
Nakaseomyces glabratus
  MIC: > 125 µg/mL

## O=c1[nH]c2ccccc2nc1N/N=C/c1cccs1
Alpha amylase
  IC50: 395840 nM

## CN1CCc2c([N+](=O)[O-])cc3[nH]c(=O)c(=O)[nH]c3c2C1
[4]
  IC50: 63 nM
[7]
  IC50: 370 nM
[8]
  IC50: 368 nM

## CN1CCNc2ccccc21
[9]
  inhibition (INH): 30%

## CCC(C)N1CCc2c(Br)cc3nc(O)c(O)nc3c2C1 (stereo unspecified)
[4]
  IC50: 2500 nM
[7]
  IC50: > 10000 nM
[8]
  IC50: 430 nM

## Cc1cnc2ccccc2n1
[9]
  inhibition (INH): 20%

## Cc1cc2[nH]c(=O)c(=O)n(CC(=O)O)c2cc1C
[3]
  Ki: 13800 nM
[4]
  Ki: 700 nM

## O=C(O)Cc1cccc(-c2ccc3[nH]c(=O)c(=O)[nH]c3c2)c1
[10]
  Ki: > 100000 nM
[11]
  Ki: 41000 nM
[12]
  IC50: > 100000 nM
[13]
  IC50: > 100000 nM
[14]
  Ki: > 100000 nM

## CCC(=O)N1CC(=O)Nc2ccccc21
[1]
  inhibition: 91%
[2]
  inhibition: 99%
[6]
  IC50: 630 nM

## Cc1nn(-c2ccccc2)c(N(C)C)c1/C=N/Nc1nc2ccccc2nc1O
Homo sapiens
  inhibition: 62%
[5]
  IC50: > 50000 nM

## CC(C)CCN1CCc2c(Br)cc3nc(O)c(O)nc3c2C1
[4]
  IC50: 9700 nM
[7]
  IC50: > 10000 nM
[8]
  IC50: 680 nM

## Cc1cccc2c1NC(=O)CN2
[9]
  inhibition (INH): 50%
